# Experimental data from patent US11918577B2, “Dipeptidyl peptidase-4 inhibitors for topical eye treatment of retinal neurodegenerative diseases” (FUNDACIÓ HOSPITAL UNIVERSITARI VALL D'HEBRON - INSTITUT DE …, priority 2016, dated 2024).
# What was measured:
# db/db mice = settings: orally administered, diabetic mice (db/db); cited from earlier work
# C. Elegans = settings: high glucose levels, no GLP-1R expression; cited from earlier work
# [1] = tested on: GLP-1 and its main downstream messenger cAMP; experiment: Intraretinal content of GLP-1 and cAMP in db/db mice, eye drops (data not shown); assay type: in vivo, mouse
# From the text: Without being bound to any theory, inventors consider that, in fact, the DPP-4 inhibitors themselves activate unrelated downstream GLP-1R pathways that might be involved in neuroprotection.
# db/db mouse [2] = experiment: Retinal apoptosis (TUNEL) in db/db mice, eye drops; assay type: in vivo; settings: eye drops for two weeks, ONL, INL, GCL, vs vehicle
# From the text: (§1) It has been reported that db/db mice reproduce the features of the neurodegenerative process that occurs in the human diabetic eye. Therefore, it is an appropriate model for testing neuroprotective drugs (according to Bogdanov et al., “The db/db mouse: a useful model for the study of diabetic retinal neurodegeneration”, PLoS One—2014, vol. no. 9(5):e97302). A total of 20 male db/db (BKS.Cg-+Lepr db/+Lepr db/OlaHsd) mice aged 10 weeks were purchased from Harlan Laboratories, Inc. In addition, 10 non-diabetic (db/+) mice matched by age were used as control group.
# (§2) This study was approved by the Animal Care and Use Committee of VHIR (Vali d′Hebron Research Institute). All the experiments were performed in accordance with the tenets of the European Community (86/609/CEE) and ARVO (Association for Research in Vision and Ophthalmology).
# The TUNEL (Terminal Transferase dUTP Nick-End Labeling) staining was carried out using the DeadEnd Fluorometric TUNEL System kit (PROMEGA, Madison, WI, USA). Cryosections of retina were permeabilised by incubation for 2 min on ice with 0.1% Triton X-100 in 0.1% sodium citrate, freshly prepared. The secondary antibody was Alexa 488 goat-anti-rabbit (Invitrogen, San Diego CA, USA). For evaluation by Laser Scanning Confocal microscopy the excitation wavelength was 488 nm and detection in the range of 515-565 nm (green) was used. […]
# db/db mouse [3] = experiment: Retinal glutamate quantification (UPLC) in db/db mice, eye drops; assay type: in vivo; settings: p<0.05
# From the text: as §1, §2
# Quantification of glutamate was performed by reverse phase ultra-performance liquid chromatography (UPLC) (Acquity-UPLC, Waters) as aminoquinoline derivatives (AccQ-Tag chemistry, MassTrak AAA method and instruments, Waters, Milford, MA).
# (§3) The design and methodology were the same than used in Example 2.
# [4] = tested on: GLAST (glutamate-aspartate transporter); experiment: GLAST immunofluorescence in retina of db/db mice, eye drops; assay type: in vivo, mouse
# From the text: as §1, §2
# GLAST (glutamate-aspartate transporter), the main glutamate transporter, was evaluated by fluorescence microscopy using specific antibodies. GLAST was evaluated by fluorescence microscopy using specific antibodies [rabbit anti-GLAST (EAAT1) (1:100, Abcam ab416, Cambridge, UK).
# as §3
# db/db mouse [5] = experiment: Blood-retinal barrier: albumin leakage (Evans blue, albumin immunofluorescence) in db/db mice, eye drops; assay type: in vivo; settings: for albumin leakage (extravasation of albumin): vs vehicle
# From the text: as §1, §2
# (§4) In the lower panel FIG. 6(B) the quantification of albumin immunofluorescence of digital images with Fluoview FV 1000 Laser Scanning Microscope is shown. Immunohistochemistry images of Fluoview FV 1000 Laser Scanning Microscope from which quantification of albumina (in red) was done are not shown. The three type of samples tested were: D-Sham, D-SAXAGLIPTIN and C (db/+). Results are the mean±SD. *p <0.05 between db/db treated with vehicle (D-Sham) and the other groups.
# as §3
# as §4, with “9(B)” for “6(B)”, “D-Sitagliptin” for “D-SAXAGLIPTIN”, “*p<0.05” for “*p <0.05”
# db/db mouse [6] = experiment: Glial activation (GFAP staining score) in retina of db/db mice, eye drops; assay type: in vivo; settings: for GFAP score of the treated mice / reactive gliosis: eye drops for two weeks; for GFAP score of the treated mice: all cases, scale 1-5; for reactive gliosis: vs vehicle
# From the text: as §1, §2
# Glial activation was evaluated by Laser Scanning Confocal microscopy using specific antibodies against GFAP (Glial fibrillar acidic protein). Sections were fixed in acid methanol (−20° C.) for 2 min, followed by three washes with PBS, 5 min each. Sections were permeabilized with TBS-Triton X-100 0.025% and were incubated in blocker (1% BSA, and 10% goat serum in PBS) for 2 hours at room temperature. Sections were then incubated with rabbit anti-GFAP (Abcam Ltd, Cambridge, U.K.) (1:500 dilution prepared in blocking solution) overnight at 4° C. in a humid atmosphere. After three washes in PBS, 5 min each, the sections were incubated with secondary antibody Alexa 488 goat-anti-rabbit (Invitrogen) (1:200 dilution prepared in blocking solution). The sections were washed three times in PBS, counterstained with Hoestch and mounted with Mounting Medium Fluorescence (Prolong, Invitrogen) and mounted with a coverslip. Comparative digital images from samples were recorded with a Fluoview FV 1000 Laser Scanning Confocal Microscope Olympus using identical brightness and contrast settings.
# To evaluate the degree of glial activation it was used a scoring system based on the extent of GFAP staining previously described (Anderson et al., “Glial and endothelial blood-retinal barrier responses to amyloid-beta in the neural retina of the rat”, Clin Ophthalmol—2008, vol. no. 2, pp.:801-816). This scoring system was as follows: Müller cell endfeet region/GCL only (score 1); Müller cell endfeet region/GCL plus a few proximal processes (score 2); Müller cell endfeet plus many processes, but not extending to ONL (score 3); Müller cell endfeet plus processes throughout with some in the ONL (score 4); Müller cell endfeet plus lots of dark processes from GCL to outer margin of ONL (score 5).
# The scoring system was as follows: Müller cell endfeet region/GCL only (score 1); Müller cell endfeet region/GCL plus a few proximal processes (score 2); Müller cell endfeet plus many processes, but not extending to ONL (score 3); Müller cell endfeet plus processes throughout with some in the ONL (score 4); Müller cell endfeet plus lots of dark processes from GCL to outer margin of ONL (score 5). n=10 mice per group (5 retinal sections per mice).
# as §3
# db/db mouse [7] = experiment: Full field electroretinography (ERG) in db/db mice, eye drops; assay type: in vivo
# Experimental: Full field electroretinography (ERG) recordings were measured using the Ganzfeld ERG platform (Phoenix Research Laboratories, Pleasanton, CA) following ISCEV (International Society for Clinical Electrophysiology of Vision) recommendations (according to Marmor et al., “Standard for clinical electroretinography.”, International Society for Clinical Electrophysiology of Vision (2004), Doc Ophthalmol—2004; vol. 108, pp.:107-114).
# [8] = administered in the form of eye drops; cited from earlier work
SMILES,intraretinal content of GLP-1 [1],intraretinal content of cAMP [1],apoptosis (TUNEL positive cells) in retinal layers (db/db mouse [2]),retinal glutamate concentration vs diabetic mice treated with vehicle (db/db mouse [3]),downregulation of GLAST induced by diabetes [4],albumin leakage (extravasation of albumin) (db/db mouse [5]),GFAP score of the treated mice (db/db mouse [6]),reactive gliosis (db/db mouse [6]),further results
"N[C@@H](CC(=O)N1CCc2c(nc(C(F)(F)F)nc2C(F)(F)F)C1)CN1CC(F)(F)CCC1=O [Gemigliptin, (3S)-3-amino-4-(5,5-difluoro-2-oxopiperidino)-1-[2,4-di(trifluoromethyl)-5,6,7,8-tetrahydropyrido[3,4-d]pyrimidin-7-yl]butan-1-one]",–,–,–,–,–,–,–,–,retinal pericyte apoptosis (db/db mice): ameliorate; vascular leakage (db/db mice): ameliorate
"CC#CCn1c(N2CCC[C@@H](N)C2)nc2c1c(=O)n(Cc1nc(C)c3ccccc3n1)c(=O)n2C [Linagliptin, 8-[(3R)-3-aminopiperidin-1-yl]-7-(but-2-yn-1-yl)-3-methyl-1-[(4-methylquinazolin-2-yl)methyl]-3,7-dihydro-1H-purine-2,6-dione]",–,–,–,–,–,–,–,–,neuroprotective effect (C. Elegans): neuroprotective effect
"N#C[C@@H]1C[C@@H]2C[C@@H]2N1C(=O)[C@@H](N)C12CC3CC(CC(O)(C3)C1)C2 [Saxagliptin, (1S,3S,5S)-2-[(2S)-2-amino-2-(3-hydroxy-1-adamantyl)acetyl]-2-azabicyclo[3.1.0]hexane-3-carbonitrile]",significant increase,significant increase,significant prevention of apoptosis in all retinal layers,significantly lower,prevented,prevented albumin leakage,< 3,significant decrease,"% positive GFAP labeling, score 1 (db/db mouse [6]; eye drops twice daily for 14 days, score 1: Müller cell endfeet region/GCL only): 95.00%; % positive GFAP labeling, score 2 (db/db mouse [6]; eye drops twice daily for 14 days, score 2: endfeet region/GCL plus a few proximal processes): 5.00%; % positive GFAP labeling, score 3 (db/db mouse [6]; eye drops twice daily for 14 days, score 3: endfeet plus many processes, not extending to ONL): 0.00%; % positive GFAP labeling, score 4 (db/db mouse [6]; eye drops twice daily for 14 days, score 4: endfeet plus processes throughout with some in the ONL): 0.00%; % positive GFAP labeling, score 5 (db/db mouse [6]; eye drops twice daily for 14 days, score 5: lots of dark processes from GCL to outer margin of ONL): 0.00%"
"N[C@@H](CC(=O)N1CCn2c(nnc2C(F)(F)F)C1)Cc1cc(F)c(F)cc1F [Sitagliptin, (R)-4-oxo-4-[3-(trifluoromethyl)-5,6-dihydro[1,2,4]triazolo[4,3-a]pyrazin-7(8H)-yl]-1-(2,4,5-trifluorophenyl)butan-2-amine]",significant increase,significant increase,significant prevention of apoptosis in all retinal layers,prevented glutamate accumulation,abrogating the downregulation of GLAST,prevented albumin leakage,≤ 3,significant decrease,"functional abnormalities measured by ERG (db/db mouse [7]): prevented functional abnormalities; sealing function of the BRB (db/db mouse [5]): preserved the sealing function of the BRB; GFAP score distribution (Table 2), score 1 (db/db mouse [6]; sitagliptin eye drops for two weeks, score 1): 85.00; GFAP score distribution (Table 2), score 2 (db/db mouse [6]; sitagliptin eye drops for two weeks, score 2): 10.00; GFAP score distribution (Table 2), score 3 (db/db mouse [6]; sitagliptin eye drops for two weeks, score 3): 5.00; GFAP score distribution (Table 2), score 4 (db/db mouse [6]; sitagliptin eye drops for two weeks, score 4): 0.00; GFAP score distribution (Table 2), score 5 (db/db mouse [6]; sitagliptin eye drops for two weeks, score 5): 0.00"
"Cc1cc(-c2cc(O)ccc2Cl)cc2nnc(Nc3ccc(OCCN4CCCC4)cc3)nc12 [TG100572, 4-chloro-3-(5-methyl-3-{[4-(2-pyrrolidin-1-ylethoxy)phenyl]amino}-1,2,4-benzotriazin-7-yl)phenol]",–,–,–,–,–,–,–,–,reaching the target in the retina [8]: able to reach the target in the retina
